Tests used:
[1] = test system: MK-801-induced PPI deficit in C57BL/6 mice; experiment: Prepulse inhibition, MK-801-induced PPI deficit; format: in vivo; conditions: MK-801 0.2 mg/kg i.p.
From the text: (§1) The NMDA-receptor antagonist MK-801-induced negative or cognitive deficits in C57BL/6 mice were in a well-established drug-induced schizophrenia mouse model and as a useful pharmacological animal model to identify if the RS-D7, its analog and its prodrug improve the symptoms through the NMDA receptor.
(§2) All wild-type (WT) mice used in this study were backcrossed onto a C57BL/6J background from the Laboratory Animal Center of National Taiwan University Hospital, and all behavioral examinations were conducted in WT mice. For acclimatizing to laboratory conditions, the mice were allowed free access to food and water and were housed in groups with a 12 hours light-dark cycle in a temperature and humidity controlled room of the Psychology Department, National Taiwan University. All animals within the age of 3 months were housed individually one week before experiment testing with food and water available ad libitum. In the beginning of the experiments, the mice were handled and weighted daily at least 1 week before the behavioral experiments. The entire animal procedures were performed according to protocols approved by the Animal Care and Use Committee established by the National Taiwan University.
(§3) MK-801 was dissolved in saline and administered at a volume of 0.01 ml/g body weight. RS-D7, Drug 12083 (analog of RS-D7) and was freshly dissolved in 1% CMC to the concentration of 2 mg/ml before usage. Prodrug 28095 was freshly dissolved in NMP:HP-beta-CD:H2O (5:25:70) to the concentration of 2 mg/ml before usage. All animals were given vehicle (saline) or MK-801 (0.2 mg/kg, i.p.) 25 minutes before the behavioral experiments. Both vehicle (1% CMC or NMP:HP-beta-CD:H2O) and experimental groups (RS-D7, Drug 12083 or Prodrug 28095) were treated after 5 minutes MK-801 administration with the appropriate dose via P.O. injections (at a volume of 0.01 ml/g body weight).
(§4) For investigating the treatment effect of RS-D7 for negative and cognitive symptoms, a series of three behavioral tests (run from the first to the third week), which included open field, sucrose preference test and prepulse inhibition were performed in sequence with a 1-week interval between tests.
To assess the sensorimotor gating function, each mouse was tested with the SR-LAB startle apparatus (San Diego Instruments, San Diego, Calif., USA). The background noise was 72 dB during testing. Each session was initiated with a 5 minutes acclimatization period followed by 64 trials, consisting of pulse-alone (P-alone) trials, prepulse pulse (pp+P) trials, and no stimulation (nostim) trials. A P-alone trial was a 120 dB white noise burst of 40 msec. In the pp+P trials, the 120 dB pulse was preceded (by 100 msec) by a 20 msec of white noise prepulse burst of 78 dB (PP6), 82 dB (PP10), or 90 dB (PP18). The nostim trials consisted of background noise only. The session began and ended with a block of six presentations of the P-alone trial. Between these two blocks, the rest of the 52 trials were performed pseudorandomly and separated by intertrial intervals of 15 sec on average (varying between 10 and 20 sec). PPI was calculated as a percentage of the startle response using the formula: % PPI=100× [(P-alone score)-(pp+P score)]/(pulse-alone score), where the pulse-alone score was the average of the pulse-alone values from the in-between block of 52 trials.

[2] = test system: MK-801-induced hyperlocomotion in C57BL/6 mice; experiment: Open field, MK-801-induced hyperlocomotion; format: in vivo
From the text: as §1, §2, §3, §4
To assess spontaneous locomotor activity, each subject was placed into the center of an open-field apparatus (25.40*25.40*40.64 cm^3, Coulbourn Instruments, Whitehall, Pa., USA) under dim lighting condition (60 lx). Motor activity parameters (including total travel distance and travel distance per 10 minutes) were monitored and recorded over a 60 minutes period by using Smart video tracking software (Panlab, Harvard apparatus, US). For comparing the treatment effects of different treatment groups, the percentage change of rescue effect on MK-801-induced hyperlocomotion was calculated using the following formula: %=(rescue effect of drug−MK-801 effect)×100%/MK-801 effect.

[3] = test system: MK-801-induced anhedonia in C57BL/6 mice; experiment: Sucrose preference test, MK-801-induced anhedonia; format: in vivo
From the text: as §1, §2, §3, §4
To assess the anhedonia, one of the negative symptoms of schizophrenia, all mice underwent 4-day testing. In the beginning of the sucrose preference, all mice were deprived of water for 23 hours in all the experiment from one day before the first day. On the first day, each mouse was given free access to 2 identical bottles with water for 1 hour. Then, the 2 identical bottles were replaced that one filled with 1% (wt/vol) sucrose solution and the other with water on the second day. On the third and fourth day, each mouse was received MK-801 and RS-D7 treatment before the experiment, and also free accessed to bottles for 1 hour. After the experiment, the 2 bottles were weighted to measure the 1-hour consumption of sucrose solution and water. The sucrose preference percentage (SPP) was calculated using the following formula: % SPP=sucrose solution consumption (g)×100%/[water consumption (g)+sucrose solution consumption (g)].

porcine kidney DAO = target: T1, porcine kidney DAO (Sus scrofa, UniProt P00371); experiment: pkDAO enzymatic assay (porcine kidney DAO IC50 assay); format: biochemical; conditions: D-alanine substrate, pH 8.3, 37° C., without FAD
T1 construct: purchased Sigma-Aldrich; host or cells: porcine kidney
T1 sequence (P00371 whole entry): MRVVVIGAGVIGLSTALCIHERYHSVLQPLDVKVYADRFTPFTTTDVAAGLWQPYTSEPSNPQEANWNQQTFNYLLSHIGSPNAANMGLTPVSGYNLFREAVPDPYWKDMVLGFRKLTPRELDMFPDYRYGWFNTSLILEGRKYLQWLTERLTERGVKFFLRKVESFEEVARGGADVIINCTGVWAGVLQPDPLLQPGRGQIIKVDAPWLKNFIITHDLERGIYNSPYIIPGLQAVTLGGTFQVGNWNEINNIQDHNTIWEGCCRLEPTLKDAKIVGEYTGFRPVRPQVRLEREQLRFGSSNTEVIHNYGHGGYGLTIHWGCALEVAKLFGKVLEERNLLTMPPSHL
Procedure: The DAAO enzymatic activity assay was modified according to the report of Oguri et al (Oguri, S., Screening of d-amino acid oxidase inhibitor by a new multi-assay method. Food chemistry 2007, 100 (2), 616). The DAAO activity was measured by using substrate D-alanine reaction produced hydrogen peroxide (H2O2) to further react with 3-(4-hydroxyphenyl) propionic acid (HPPA). The HPPA were oxidized by H2O2 and peroxidase to become the fluorogenic dimer which was measured to represent the activity of DAAO.
For porcine kidney DAO IC50 assay, the DAO substrate was prepared in 50 mM D-alanine (dissolved in 0.2 M Tris-HCl buffer, pH 8.3). A 100 μl of D-alanine solution was mixed with 4 μl (in 100% dimethyl sulfoxide, DMSO) of different concentrations of candidate compounds shown in tables below ranging from 48.83 μM, 97.66 μM, 195.31 μM, 390.63 μM, 781.25 μM, 1.56 mM, 3.13 mM, 6.25 mM, 12.50 mM, 25.00 mM, and 50.00 mM, with a final DMSO concentration of 0.167% in each reaction concentration. 10 μl of D-alanine and candidate compound mixture was incubated with 220 μl of Reaction Master Mix in black 96 well plate at 37° C. for 5 minutes. The Reaction Master Mix contained 110 μl of 5 U/mL porcine kidney DAO (Sigma-Aldrich, USA) solution (dissolved with 0.2 M Tris-HCl buffer, pH 8.3), 1.1 mL of 15 U/mL peroxidase solution (dissolved with 0.2 M Tris-HCl buffer, pH 8.3), 1.1 mL of 20 mM HPPA solution (dissolved with 0.2 M Tris-HCl buffer, pH 8.3), and 22 ml of 2 M Tris-HCl buffer (pH 8.3) for 110 reaction assays.
Fluorescence intensity (Fs) was measured at 405 nm by irradiation excitation at 320 nm. The higher the DAO enzymatic activity was, the higher the fluorescence intensity. The fluorometric inhibition indicator (Fi) was obtained from the following equation: Fi=(Fs-FDrug)/(FDMSO), where the fluorescent drug blank (FDrug) was measured in the drug mixture solution (using 0.2 M Tris HCl buffer, pH 8.3, without D-alanine). A DMSO blank (FDMSO) was measured under a 100% DMSO solution.
Although FAD is generally included in the reaction mixture in the D-amino acid oxidase assay since it easily dissociates from the holoenzyme, the present method was performed without FAD. The inhibitory effect of DAO inhibitors was compared by using inhibitory concentrations leading to 50% inhibition of DAAO activity (IC50). The IC50 values were calculated by nonlinear regression model using GraphPad Prism, version 5(GraphPad Software, Inc., La Jolla, Calif.).

[4] = target: T2, DAO in SK-N-SH neuroblastoma cells (Homo sapiens, UniProt P14920); experiment: Cell-based DAO assay in SK-N-SH cells; set-up: key to Relative DAO activity normalize to DMSO at Final Conc. 100 uM / Relative DAO activity normalize to DMSO at Final Conc. 10 uM: fraction of DMSO-control DAO activity (1 = DMSO); conditions: SK-N-SH 1.25*10^5 cells/well, drug treated for 3.5 hr; for IC50: 50 mM D-serine
T2 construct: endogenous in cells; host or cells: SK-N-SH neuroblastoma cells (ATCC)
T2 sequence (P14920 whole entry): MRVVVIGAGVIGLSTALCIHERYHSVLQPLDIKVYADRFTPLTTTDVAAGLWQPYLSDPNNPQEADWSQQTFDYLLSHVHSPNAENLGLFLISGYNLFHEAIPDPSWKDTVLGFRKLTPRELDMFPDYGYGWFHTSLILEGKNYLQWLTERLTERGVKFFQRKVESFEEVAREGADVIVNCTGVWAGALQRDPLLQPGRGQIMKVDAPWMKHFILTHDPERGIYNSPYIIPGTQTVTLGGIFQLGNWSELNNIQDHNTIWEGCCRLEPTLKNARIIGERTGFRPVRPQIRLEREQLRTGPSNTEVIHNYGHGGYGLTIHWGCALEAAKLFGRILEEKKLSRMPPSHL
Procedure: The SK-N-SH neuroblastoma cell line was purchased from American Type Culture Collection (ATCC). It was cultured in MEM media (Invitrogen/GIBCO, Rockville, Md.) supplemented with 10% fetal bovine serum, 1×NEAA (Invitrogen/GIBCO) at 37° C. with 5% CO2 in a humidified atmosphere. Cells were trypsinized and plated into a black 96-well plate (NUNC No. 237108) at a density of 125,000 cells/well in 50 μl before cell-based DAO assay.
The cellular DAO activity assay was using a method modified according to the report of Brandish et al. (Brandish, P. E., et al., A cell-based ultra-high-throughput screening assay for identifying inhibitors of D-amino acid oxidase. J Biomol Screen, 2006. 11(5): p. 481-7). SK-N-SH cells were suspended in assay buffers of HANKS buffer solution (Invitrogen/GIBCO No. 14025-092) with 20 mM HEPES. D-serine of (final concentration 50 mM) was added in each well as the substrate for DAO enzyme. The Amplex Red Hydrogen Peroxide/Proxidase Assay Kit (Molecular Probes/Invitrogen, cat. A22188) was used to measure H2O2 production which diffused across the cell membrane into the assay medium after DAO reaction. After seeding cells into black 96-well plate (Nunc No. 237108, Denmark), 50 μl of SK-N-SH cells (125,000 cells/well) was mixed with 50 μl drug solution (2.5 fold of interesting final concentration) and incubate at 37° C. with 5% CO2 in a humidified atmosphere for 30 minutes. After 30 minutes later, 25 μl of a 5 fold mixture containing D-serine, horseradish peroxidase (HRP), and Amplex Red was added into wells containing 100 μl of cell-drugs mixture and incubated at 37° C. with 5% CO2 in a humidified atmosphere for 3 hours. The final concentration of DMSO is below 1%. The fluorescence signal was then detected in SpectraMax M2e microplate reader (Molecular Devices, USA) with excitation at 544 nm and emission at 590 nm. The optimized assay buffer contained a final concentration of 50 mM D-serine, 0.625 units HRP, and 50 μM Amplex Red in a 125 μl assay volume.

Row | SMILES | Effect on MK-801 induced PPI deficit ([1]; 100 mg/kg P.O.) | Effect on MK-801 induced PPI deficit ([1]; 200 mg/kg P.O.) | Effect on MK-801 induced hyperlocomotion (open field) ([2]; 100 mg/kg P.O., MK-801 0.2 mg/kg i.p., mice) | Effect on MK-801-induced hyperlocomotion (FIG. 1) ([2]; different dosages, compared to the MK-801 group) | Effect on MK-801 induced anhedonia (sucrose preference) ([3]; 200 mg/kg P.O., MK-801 0.2 mg/kg i.p., mice) | Effect on anhedonia after acute MK-801 injection (FIG. 2) ([3]; different dosages) | IC50 (porcine kidney DAO) [µM] | Relative DAO activity normalize to DMSO at Final Conc. 10 uM [4] | Relative DAO activity normalize to DMSO at Final Conc. 100 uM [4] | IC50 [4] [µM]
1 | COc1c(C)cnc(C[S+]([O-])c2nc3cc(OC(=O)CC(C)CC(C)(C)C)ccc3[nH]2)c1C (centres unmarked) [compound 28095, 2-(((4-methoxy-3,5-dimethylpyridin-2-yl)methyl)sulfinyl)-1H-benzo[d]imidazol-5-yl 3,5,5-trimethylhexanoate] | significantly alleviated MK-801 induced PPI deficit | significantly alleviated MK-801 induced PPI deficit | alleviated MK-801 induced hyperlocomotion | can rescue the MK-801-induced hyperlocomotion | normalized MK-801 induced anhedonia | rescue the anhedonia after acute MK-801 injection | – | – | – | –
2 | C/C=C\C(=O)Oc1ccc2[nH]c([S+]([O-])Cc3ncc(C)c(OC)c3C)nc2c1 (centres unmarked) [compound 12124, 2-(((4-methoxy-3,5-dimethylpyridin-2-yl)methyl)sulfinyl)-1H-benzo[d]imidazol-5-yl (Z)-but-2-enoate] | – | – | – | – | – | – | 11.2 | 0.97 | 0.36 | 108
3 | COc1c(C)cnc(C[S+]([O-])c2nc3cc(OC(=O)C4CCC4)ccc3[nH]2)c1C (centres unmarked) [compound 25027, 2-(((4-methoxy-3,5-dimethylpyridin-2-yl)methyl)sulfinyl)-1H-benzo[d]imidazol-5-yl cyclobutanecarboxylate] | – | – | – | – | – | – | 21 | 1.15 | 0.69 | 240
